According to patent publication US20100183658A1, “Novel Compounds for Enhancing MHC Class II Therapies” (The Brigham and Women's Hospital, Inc., priority 2007, published 2010):
Entries after “also recorded” stand apart in the source; their conditions may differ. Values belong to the compound of their own block, whether it stands above or below them. Ends that are not written are not given here. C(Compound (Ia)-maleimide) = not defined here

Key:
[1] = DR2/TCR transgenic mice and other EAE models, from a mean score of ~4; cited from earlier work
[2] = 20 mg daily subcutaneously over two years; cited from earlier work
DR2/CLIP = target: T1, DR2/CLIP (Homo sapiens, UniProt P01903+P01911); test: Competition for binding of labeled MBP peptide to DR2/CLIP in the FP assay; conditions: 10 nM MBP-488, 100 nM DR2/CLIP, wide dose range
T1 construct: we generated DR/CLIP complexes as soluble molecules in CHO cells; CLIP peptide (of invariant chain, CD74) joined through a linker with a thrombin cleavage site (N, cleaved yes); made in house
Experimental: Competitor peptides were tested over a wide dose range against 10 nM MBP-488 and 100 nM DR2/CLIP in the FP assay.
Compound (Ia)-glatiramer acetate compounds are characterized for their ability to compete for binding of the Alexe™-488 labeled MBP peptide to DR2 in the FP assay, as well as for their ability to inhibit presentation of the MBP peptide to human MBP specific T cell clones, as described in detail above.

[3] = test system: DR2/MBP specific T cell hybridoma; test: T cell assay: IL-2 release by DR2/MBP specific T cell hybridoma, MBP (85-99) presented by MGAR cells; assay type: cell-based; conditions: MGAR cells as APC
Experimental: Peptide presentation of MBP (85-99) to T cell hybridomas by MGAR cells was measured by IL-2 release.

DR2 [4] = target: T2, DR2 (Homo sapiens, UniProt P01903+P01911); test: Dissociation of pre-bound Alexa-488 labeled MBP peptide from DR2 followed by fluorescence polarization; assay type: biochemical; set-up: we generated DR/CLIP complexes as soluble molecules in CHO cells; CLIP peptide (of invariant chain, CD74) joined through a linker with a thrombin cleavage site (N, cleaved yes); made in house; conditions: for displacement (dissociation) of labeled MBP peptide from DR2 by competitor: competitor 50 μM, 150 nM DR2/50 nM Alexa-488 MBP
Experimental: We also examined whether Compound (Ia) could induce the release of a previously bound high affinity peptide from DR2 as shown in FIG. 4B. This issue is important for potential applications of this small molecule because most DR molecules are occupied by intermediate to high affinity peptides. Applicants therefore loaded the DR2 molecule with the high affinity Alexa™-488 MBP peptide during an overnight incubation and then examined if Compound (Ia) could induce dissociation of this labeled peptide. A molar excess of an unlabeled MBP peptide was added to inhibit rebinding of the labeled peptide to DR2. […] Compound (Ia) thus substantially accelerates peptide binding by creating empty DR molecules.
We then tested the concept of “self-catalyzed peptide loading” by synthesizing the MBP peptide with an N-terminal or C-terminal cysteine to which the Compound (Ia)-maleimide was linked. These peptide-Compound (Ia) compounds were purified by reverse-phase HPLC and their identity verified by mass spectrometry. Applicants then examined whether the linked Compound (Ia) group could displace a high affinity peptide from the DR2 binding site. For that purpose, we loaded DR2 (1.5 μM) with the Alexa™-488 labeled MBP peptide (500 nM) at 37° C. for 5 hours. The complex was then diluted to 150 nM DR2/50 nM Alexa™-488 and added to a 384-well plate in a volume of 40 μl.

MGAR cells = test: Cellular assay: MBP peptide loading on MGAR cells, FACS labeling with MK16 mAb; assay type: cell-based, human; conditions: for activity relative to Compound (Ia) in loading of MBP peptide to DR2: MGAR cells, MBP peptide 1 μM, FIG. 13B, 14B
Experimental: The cells were then labeled with biotinylated MK16 Fab and streptavidin-APC and analyzed by FACS. Cells not pulsed with peptide (green line) were used as a negative control to define background labeling of MK16.
(§1) MGAR cells were incubated with MBP peptide (1 μM) in the presence of different compounds and the amount of DR2 bound peptide was determined by FACS labeling with the MK16 mAb.
as §1, §1

DR2 [5] = target: T2, DR2; test: Real-time fluorescence polarization peptide binding assay (DR2/CLIP plus Alexa-488 labeled MBP peptide)
[6] = mouse, in vivo
Excerpt: An important aspect of the medicinal chemistry effort is a thorough analysis of potential in vivo toxicity.

CD4 T cell response = test: Immunization of HLA-DR4 transgenic mice with viral and tumor peptides, CD4 T cell response; assay type: in vivo; conditions: co-administered with or covalently linked to peptide
Excerpt: HLA-DR4 transgenic mice (DRA, DRB1*0401) are used to examine whether Compound (Ib), Compound (Ia) and the other compounds enhance the CD4 T cell response following immunization with viral and tumor peptides. Mice are immunized with peptides from two human pathogens (HIV and HCV) as well as peptides from two human tumor antigens (annexin V and gp100, identified in human melanomas). Applicants have previously performed binding studies with these peptides and shown that they bind with high affinity to DR4. The T cell response is analyzed in two different assays. First, the frequency of peptide-specific T cells is analyzed in draining lymph nodes with DR4/peptide tetramers. This approach provides a quantitative readout of the induced T cell response. Second, the cytokine production profile of these T cells is determined following a 48 hour in vitro re-stimulation with the relevant peptide. The cytometric bead array technique is utilized for comprehensive definition of the cytokine repertoire. Either Compound (Ia) is co-administered with the peptide of interest in the adjuvant or peptides are utilized with a covalently linked Compound (Ia) group (or other groups, depending on which one is being tested). […] These experiments are expected to establish the in vivo efficacy of Compound (Ia) and to establish appropriate dosing and administration procedures with rapid, quantitative readouts. […]

dendritic cells = test: Peptide presentation by dendritic cells in vivo (MK16 labeling of draining lymph node cells); conditions: co-administered at 50-200 μM s.c. with MBP peptide
Excerpt: Applicants next established the higher levels of peptide presentation in the presence of Compound (Ia) in human antigen presenting cells (APCs). The goal of these experiments is to examine whether Compound (Ia) covalently linked to the MBP peptide (abbreviated as Compound (Ia)*MBP peptide) and Compound (Ia) co-administered with peptide (Compound (Ia)+MBP peptide) enhance binding to MHC-II in vivo compared to unmodified peptide. The MK16 mAb (Krogsgaard et al., 2000, J. Exp. Med., 191:1395-1412) is used to directly quantify DR2/MBP peptide complexes on the surface of dendritic cells in lymph nodes draining the s.c. injection site. Lymph nodes are dissected 24 hours following injection of peptides in PBS and cell suspensions are labeled with CD11c (dendritic cells), MK16 (DR2/MBP), and Annexin-V (exclusion of apoptotic cells) for FACS analysis. The efficacy of Compound (Ia)*MBP peptide and unmodified MBP peptide are compared at concentrations ranging from 1 to 100 μM administered s.c. in the flank in 0.2 ml of PBS. In the co-administration mode, Compound (Ia) is added to the inoculum at concentrations of 50-200 μM.

empty DR2 molecules = target: T3, empty DR2 molecules (Homo sapiens, UniProt P01903+P01911); test: Association of Alexa-488 MBP peptide to empty DR2 molecules after photo-cleavage of bound peptide (FP); assay type: biochemical; conditions: photo-cleaved bound peptide, with versus without compound
T3 construct: we generated DR/CLIP complexes as soluble molecules in CHO cells; CLIP peptide (of invariant chain, CD74) joined through a linker with a thrombin cleavage site (N, cleaved yes); made in house
Excerpt: DM acts as a catalyst that accelerates peptide binding reactions and increases both the rate of peptide dissociation and association. […] Rigorous testing of this hypothesis required generation of empty DR molecules, a task that is challenging because DR molecules aggregate over time in the absence of peptide. Applicants therefore synthesized a peptide with a photo-cleavable residue (a derivative of phenylalanine), so that the binding site could be rapidly vacated by peptide cleavage. This approach has been reported for the creation of empty MHC class I molecules (Toebes et al., 2006, Nat. Med., 12:246-251). The photoreactive group [3-amino-3-(2-nitro) phenyl-propionic acid; […]] was placed at the P4 position of the peptide, close to the center of DR2 bound peptide. The peptide also carried an N-terminal DNP group for affinity isolation of the complex generated with this peptide. […] Applicants then loaded this peptide onto DR2 molecules, isolated the complex by DNP affinity chromatography, irradiated the samples at 360 nm at 4° C., added Alexa™-488 labeled MBP and tracked its association to DR2 by FP in the presence and absence of Compound (Ia). Applicants observed a striking Compound (Ia)-induced acceleration of Alexa™-488 MBP association to DR2 when the bound peptide was photo-cleaved compared to reactions with photo-cleavage but no Compound (Ia) as diagrammed in FIG. 5. […]

Compound: glatiramer acetate
mean EAE score under treatment [1]: ~2 | reduction of relapse rate [2]: 29%

Compound: MBP-C-Compound (Ia): MBP peptide with a C-terminal cysteine to which the Compound (Ia)-maleimide was linked (PGSRPHLIRLFSRDA-{C(Compound (Ia)-maleimide)}; reading uncertain; UniProt P02686 85-99, looked up, fragment)
competition against labeled MBP peptide for DR2/CLIP (DR2/CLIP): more effective competitor than unmodified MBP peptide | IL-2 production by T cell hybridoma [3]: higher levels of IL-2 production | displacement (dissociation) of labeled MBP peptide from DR2 by competitor (DR2 [4]; listed as MBP peptide with C-terminally linked Compound (Ia)): more effective in displacing the labeled peptide; also recorded: more favorable

Compound: O=C(Cc1c(C(=O)O)[nH]c2ccccc12)Nc1ccc(Cl)c(Cl)c1 [Compound (Ic)]
activity relative to Compound (Ia) in loading of MBP peptide to DR2 (MGAR cells): higher activities than Compound (Ia)

displacement (dissociation) of labeled MBP peptide from DR2 by competitor (DR2 [4]): slow dissociation
Compound: MBP peptide without linked Compound (Ia): unmodified myelin basic protein (85-99) peptide that binds with high affinity to DR2 (PGSRPHLIRLFSRDA; UniProt P02686 85-99, looked up, fragment) [reference compound]

Compound: O=C(Cc1c(C(=O)O)[nH]c2c(F)c(F)c(F)cc12)Nc1ccc(F)c(Cl)c1 [Compound (Id)]
activity relative to Compound (Ia) in loading of MBP peptide to DR2 (MGAR cells): higher activities than Compound (Ia)

fold higher activity than Compound (Ia) in catalyzing loading of the MBP peptide to DR2 (DR2 [5]; biochemical assay): 4.2 fold
Compound: O=C(Cc1c(C(=O)O)[nH]c2c(F)c(F)c(F)cc12)Nc1ccc(Cl)c(Cl)c1 [Compound (Ib)]
activity relative to Compound (Ia) in loading of MBP peptide to DR2 (MGAR cells): substantially higher activity than Compound (Ia)

Compound: O=C(Cc1c(C(=O)O)[nH]c2ccc(Cl)cc12)Nc1ccc(F)c(Cl)c1 [Compound (Ia)]
acute toxicity, observation of mice [6]: no sips of distress | CD4 T cell response following immunization (CD4 T cell response): substantial enhancement | loading of peptides on dendritic cells in vivo (dendritic cells): increases loading of peptides in a dose-dependent manner | fold increase of the initial rate of peptide association (DR2 [5]; neutral pH): 22 fold | time to reach half-maximal peptide association (DR2 [5]; pH 5.2, absence of DM, compound at 109 μM (160 minutes without compound)): 7 min | rate of peptide binding reaction compared to DM (DR2 [5]; pH 5.2, higher compound concentrations): faster than in the presence of DM | pH of maximum activity (DR2 [5]; pH range 3.75-7.0): 5.25 | fold increase of the initial rate of peptide association (DR2 [5]; pH range from pH 4.5 to 5.75): more than 58 fold | peptide association to empty DR2 molecules (empty DR2 molecules): substantially accelerated peptide association to empty DR2 molecules | dissociation of previously bound high affinity labeled MBP peptide from DR2 (DR2 [4]; excess unlabeled MBP peptide, versus DMSO control): marked acceleration of peptide dissociation | concentration range inducing peptide dissociation (DR2 [4]; release of high affinity peptides from DR2): low micro-molar range | lowering of the dose of peptide required for equivalent staining / presentation (MGAR cells; 1 μM MBP peptide plus compound versus 10 μM peptide alone): approximately 10 fold | presentation of MBP on MGAR cells (MK16 staining) (MGAR cells; 100 μM compound, 1.7 μM MBP peptide, 30 minutes at 37° C.): significantly increased
